This note sets out measurements from patent US20240317708A1, “INHIBITORS OF TRANSGLUTAMINASES” (ZEDIRA GMBH, priority 2021, published 2024).

The target in series [1] is T1, recombinant human transglutaminase 2 (Homo sapiens, UniProt P21980).
T1 construct: purchased Zedira T022
T1 sequence (P21980 1-687): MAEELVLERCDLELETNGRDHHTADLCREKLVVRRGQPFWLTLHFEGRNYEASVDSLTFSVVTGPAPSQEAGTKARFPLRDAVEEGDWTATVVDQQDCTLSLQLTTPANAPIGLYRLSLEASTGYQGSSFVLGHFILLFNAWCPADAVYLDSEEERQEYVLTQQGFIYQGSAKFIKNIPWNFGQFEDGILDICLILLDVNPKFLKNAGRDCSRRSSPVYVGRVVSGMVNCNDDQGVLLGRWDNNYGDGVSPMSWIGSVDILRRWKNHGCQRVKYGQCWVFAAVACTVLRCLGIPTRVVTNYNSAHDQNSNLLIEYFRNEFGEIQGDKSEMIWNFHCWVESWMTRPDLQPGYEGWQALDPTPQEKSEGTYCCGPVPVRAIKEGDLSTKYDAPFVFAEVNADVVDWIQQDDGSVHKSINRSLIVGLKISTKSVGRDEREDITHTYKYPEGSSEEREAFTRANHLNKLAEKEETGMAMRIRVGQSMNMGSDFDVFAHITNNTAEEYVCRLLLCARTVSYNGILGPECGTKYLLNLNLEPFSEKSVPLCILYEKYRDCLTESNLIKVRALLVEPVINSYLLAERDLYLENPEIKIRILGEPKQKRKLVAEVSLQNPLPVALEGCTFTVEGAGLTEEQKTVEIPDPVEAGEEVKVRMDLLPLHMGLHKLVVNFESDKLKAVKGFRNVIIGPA
As to the kind of experiment: Transglutaminase assay (dansylcadaverine incorporation into dimethylcasein, DCC-assay). The following applies: recombinant human TG2 10 nM, dansylcadaverine/dimethylcasein, 37° C. The series is classed as biochemical. The procedure:
For the determination of potency of inhibitors against tissue transglutaminase, the incorporation of dansylcadaverine into dimethylcasein (Zedira product T036, Lorand et al., Anal Biochem, 1971, 44:221-31) was measured using recombinant human transglutaminase 2 (Zedira Product T022).
The tissue transglutaminase is diluted in buffer (50 mM Tris-HCl, 7.5 mM CaCl2, 150 mM NaCl, pH=7.4). The final concentration of TG2 in the assay is 10 nM.
A 10 mM inhibitor stock solution is prepared in DMSO, and from this a serial 1:2-fold dilution series is prepared also in DMSO. Each of the initial dilutions is subsequently diluted 1:50-fold with buffer (50 mM Tris-HCl, 7.5 mM CaCl2, 150 mM NaCl, pH=7.4) to yield the final working dilutions containing 2% (v/v) DMSO.
15 μl of inhibitor working dilution are added per well of a 96 well microtiter plate. As control, 15 μl of a 2% (v/v) DMSO solution prepared using the buffer mentioned above are added per well.
Immediately before starting the assay, 600 μl transglutaminase working solution are added to 11.4 ml assay buffer (50 mM Tris-HCl, 10 mM CaCl2, 10 mM glutathione, 2.5% glycerol, 16.7 μM dansylcadaverine, 4 μM N,N-dimethylcasein, 200 mM NaCl, pH=8.0). 285 μl of this reaction mix are added per well containing the inhibitor.
Increase in fluorescence is measured using λex=330 nm and λem=500 nm at 37° C. for 30 min. A slope of the increase in fluorescence between 20 and 30 min is calculated for determination of the IC50 value (inhibitor concentration at which 50% of the initial activity is blocked).
Analysis of enzymatic activity is performed by calculation of the slope of an increase in fluorescence intensity. IC50 values are calculated by plotting the enzymatic activity (as percentage from control containing 2% DMSO instead of inhibitor) against the inhibitor concentration. IC50 is defined as the inhibitor concentration blocking 50% of initial enzyme activity.

Series [2] is described as follows: Log D shake flask method (octanol / PBS pH 7.4, HPLC). The series is classed as physicochemical. The following applies: octanol/phosphate-buffered saline (PBS); octanol / PBS pH 7.4, shake flask. As for the experimental part: In order to classify the inventive compounds according to their lipophilicity, Log D values (distribution coefficient) were determined by means of the well-established shake flask method, measuring the partition of a compound between an octanol and phosphate-buffered saline (PBS, pH 7.4) by HPLC.

A short description of series [3]: Caco-2 permeability assay (CacoReady kit). The series is classed as in vitro ADME. The following applies: human. As for the experimental part: Permeability coefficients (Papp values) were obtained from Caco-2 barrier studies predicting oral/intestinal bioavailability of the tested compounds. The assays were performed by using CacoReady™ ready-to-use kits from ReadyCell according to the manufacturers protocol.
(Caco-2 cells form a polarised layer with tight junctions and transporters.)

Consider `COC(=O)/C=C/CC[C@H](NC(=O)c1oc2ccccc2c1C)C(=O)Nc1cccn(CC(=O)NC[C@@H]2CC[C@H]3C[C@@H]2C3(C)C)c1=O` [III-71, (S,E)-methyl 7-(1-(2-(((1S,2R,5S)-6,6-dimethylbicyclo[3.1.1]heptan-2-yl)methylamino)-2-oxoethyl)-2-oxo-1,2-dihydropyridin-3-ylamino)-6-(3-methylbenzofuran-2-carboxamido)-7-oxohept-2-enoate], for which, in series [1], the IC50 lay in the range of 25 to 250 nM. In addition, the logD in series [2] lay within 3 to 5. The same compound returned a Papp in series [3] of 1 to 10 ×10⁻⁶ cm/s.

In the case of `COC(=O)/C=C/CC[C@H](NC(=O)c1cncn1C)C(=O)Nc1cccn(CC(=O)NC2C3CC4CC(C3)CC2C4)c1=O` (stereo partly drawn) [III-1, (S,E)-methyl 7-(1-(2-(2-adamantylamino)-2-oxoethyl)-2-oxo-1,2-dihydropyridin-3-ylamino)-6-(1-methyl-1H-imidazole-5-carboxamido)-7-oxohept-2-enoate], in series [1], the IC50 is below 25 nM. In series [2], this compound gave a pH-dependent lipophilicity (logD) of 1 to 3. Besides, in series [3], the Papp was below 1 ×10⁻⁶ cm/s.

Consider `COC(=O)/C=C/CC[C@H](NC(=O)c1cc(Cl)sc1Cl)C(=O)Nc1cccn(CC(=O)N[C@@H]2C[C@@H]3CC[C@H]2C3)c1=O` [III-126, (S,E)-methyl 7-(1-(2-((1S,2R,4R)-bicyclo[2.2.1]heptan-2-ylamino)-2-oxoethyl)-2-oxo-1,2-dihydropyridin-3-ylamino)-6-(2,5-dichlorothiophene-3-carboxamido)-7-oxohept-2-enoate], for which, in series [1], the IC50 was below 25 nM. In series [2], this compound displayed a log distribution coefficient (logD) of 3 to 5. In addition, in series [3], the Papp is 1 to 10 ×10⁻⁶ cm/s.

On to `COC(=O)/C=C/CC[C@H](NC(=O)c1ccnn1C)C(=O)Nc1cccn(CC(=O)N[C@H]2C[C@H]3CC[C@]2(C)C3(C)C)c1=O` [III-122, (S,E)-methyl 6-(1-methyl-1H-pyrazole-5-carboxamido)-7-oxo-7-(2-oxo-1-(2-oxo-2-((1R,2S,4R)-1,7,7-trimethylbicyclo[2.2.1]heptan-2-ylamino)ethyl)-1,2-dihydropyridin-3-ylamino)hept-2-enoate], for which, in series [1], the IC50 is 25 to 250 nM. This compound also had a logD in series [2] of 1 to 3. This compound registered a Papp in series [3] below 1 ×10⁻⁶ cm/s.

On to `COC(=O)/C=C/CC[C@H](NC(=O)c1oc2ccccc2c1C)C(=O)Nc1cccn(CC(=O)NC2(C#N)C3CC4CC(C3)CC2C4)c1=O` (stereo partly drawn) [III-43, (S,E)-methyl 7-(1-(2-(2-carbonitrileadamantane-2-amino)-2-oxoethyl)-2-oxo-1,2-dihydropyridin-3-ylamino)-6-(3-methylbenzofuran-2-carboxamido)-7-oxohept-2-enoate], for which the concentration for half-maximal inhibition (IC50) in series [1] was in the range of 25 to 250 nM. In addition, the log distribution coefficient (logD) in series [2] lay within 3 to 5. In addition, the Papp in series [3] is below 1 ×10⁻⁶ cm/s.

With `CCCCCNC(=O)/C=C/CC[C@H](NC(=O)c1nc2ccccc2s1)C(=O)Nc1cccn(CC(=O)NC23CC(C2)C3)c1=O` [III-142, (S,E)-6-(benzo[d]thiazole-2-carboxamido)-N7-(1-(2-(bicyclo[1.1.1]pentan-1-ylamino)-2-oxoethyl)-2-oxo-1,2-dihydropyridin-3-yl)-N1-pentylheptyl-2-enediamide], the IC50 in series [1] is 25 to 250 nM. In series [2], this compound displayed a logD of 1 to 3. In addition, the Papp in series [3] fell in the range of 1 to 10 ×10⁻⁶ cm/s.

Turning to `COC(=O)/C=C/CC[C@H](NC(=O)c1csc(Br)c1)C(=O)Nc1cccn(CC(=O)NC2C3CC4CC(C3)CC2C4)c1=O` (stereo partly drawn) [III-17, (S,E)-methyl 6-(5-bromothiophene-3-carboxamido)-7-(1-(2-(2-adamantylamino)-2-oxoethyl)-2-oxo-1,2-dihydropyridin-3-ylamino)-7-oxohept-2-enoate], the 50% inhibitory concentration (IC50) in series [1] is below 25 nM. In series [2], this compound showed a pH-dependent lipophilicity (logD) of 3 to 5. The same compound yielded an apparent permeability (Papp) in series [3] below 1 ×10⁻⁶ cm/s.

As to `COC(=O)/C=C/CC[C@H](NC(=O)c1oc2ccccc2c1C)C(=O)Nc1cccn(CC(=O)N[C@]23C[C@H]4C5CC6CC4[C@@H](C2)[C@@H](C6)[C@@H]5C3)c1=O` (stereo in doubt) [III-74, (S,E)-methyl 7-(1-(2-(diamantane-4-amino)-2-oxoethyl)-2-oxo-1,2-dihydropyridin-3-ylamino)-6-(3-methylbenzofuran-2-carboxamido)-7-oxohept-2-enoate], the IC50 in series [1] was below 25 nM. In series [2], the pH-dependent lipophilicity (logD) lay within 3 to 5. Moreover, the Papp in series [3] lay in the range of 1 to 10 ×10⁻⁶ cm/s.

With `COC(=O)/C=C/CC[C@H](NC(=O)c1cncn1C)C(=O)Nc1cccn(CC(=O)NC23CC4(C)CC(C)(CC(C)(C4)C2)C3)c1=O` [III-91, (S,E)-methyl 7-(1-(2-(3,5,7-trimethyl-1-adamantylamino)-2-oxoethyl)-2-oxo-1,2-dihydropyridin-3-ylamino)-6-(1-methyl-1H-imidazole-5-carboxamido)-7-oxohept-2-enoate], in series [1], the half-inhibitory concentration (IC50) is below 25 nM. In series [2], the logD fell in the range of 3 to 5. In series [3], this compound showed a Papp of 1 to 10 ×10⁻⁶ cm/s.

`O=C(/C=C/CC[C@H](NC(=O)c1nc(Br)cs1)C(=O)Nc1cccn(CC(=O)NC23CC(C2)C3)c1=O)NCc1ccccc1` [III-155, (S,E)-N1-benzyl-N7-(1-(2-(bicyclo[1.1.1]pentan-1-ylamino)-2-oxoethyl)-2-oxo-1,2-dihydropyridin-3-yl)-6-(4-bromothiazole-2-carboxamido)hept-2-enediamide]: in series [1], the IC50 is 25 to 250 nM. In series [2], this compound showed a logD of 1 to 3. Moreover, the Papp in series [3] lay in the range of 1 to 10 ×10⁻⁶ cm/s.

For the compound `COC(=O)/C=C/CC[C@H](NC(=O)c1cc2c(Br)cccc2o1)C(=O)Nc1cccn(CC(=O)NC2C3CC4CC(C3)CC2C4)c1=O` (stereo partly drawn) [III-4, (S,E)-methyl 6-(4-bromobenzofuran-2-carboxamido)-7-(1-(2-(2-adamantylamino)-2-oxoethyl)-2-oxo-1,2-dihydropyridin-3-ylamino)-7-oxohept-2-enoate], the IC50 in series [1] was below 25 nM. Further, the log distribution coefficient (logD) in series [2] lay within 3 to 5. The same compound had a Papp in series [3] of 1 to 10 ×10⁻⁶ cm/s.

In the case of `COC(=O)/C=C/CC[C@H](NC(=O)c1ccnnc1)C(=O)Nc1cccn(CC(=O)NC2C3CC4CC(C3)CC2C4)c1=O` (stereo partly drawn) [III-85, (S,E)-methyl 7-(1-(2-(2-adamantylamino)-2-oxoethyl)-2-oxo-1,2-dihydropyridin-3-ylamino)-7-oxo-6-(pyridazine-4-carboxamido)hept-2-enoate], the half-inhibitory concentration (IC50) in series [1] was below 25 nM. Moreover, in series [2], the logD was 1 to 3. The compound further gave a Papp in series [3] below 1 ×10⁻⁶ cm/s.

For the compound `COC(=O)/C=C/CC[C@H](NC(=O)c1ccnn1C)C(=O)Nc1cccn(CC(=O)NC23CC4(C)CC(C)(CC(C)(C4)C2)C3)c1=O` [III-109, (S,E)-methyl 7-(1-(2-(3,5,7-trimethyl-1-adamantylamino)-2-oxoethyl)-2-oxo-1,2-dihydropyridin-3-ylamino)-6-(1-methyl-1H-pyrazole-5-carboxamido)-7-oxohept-2-enoate], the IC50 in series [1] was below 25 nM. Also, in series [2], the log distribution coefficient (logD) lay within 3 to 5. The apparent permeability (Papp) in series [3] was below 1 ×10⁻⁶ cm/s.

For the compound `COC(=O)/C=C/CC[C@H](NC(=O)[C@H]1COCCN1)C(=O)Nc1cccn(CC(=O)NC2C3CC4CC(C3)CC2C4)c1=O` (stereo partly drawn) [III-31, (S,E)-methyl 7-(1-(2-(2-adamantylamino)-2-oxoethyl)-2-oxo-1,2-dihydropyridin-3-ylamino)-6-((R)-morpholine-3-carboxamido)-7-oxohept-2-enoate], in series [1], the IC50 is 25 to 250 nM. The compound also gave a logD in series [2] of 1 to 3. Moreover, the apparent permeability coefficient (Papp) in series [3] was below 1 ×10⁻⁶ cm/s.

In general, IC50 refers to the concentration at which inhibition is half-maximal. The logD is the decadic logarithm of the distribution of all forms, ionised or not, between an organic phase and buffer at a given pH. A word on the Papp: it is a coefficient for how fast a substance crosses the barrier.
